Assay results published in PubChem BioAssay (NCI).
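The compound was tested at five concentrations on cells cultured in 96-well plates, with a 48-hour exposure period. TGI denotes the concentration required for complete inhibition of growth.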

Columns and labels:
Experiment in all cases: growth of human tumour cells (NCI), 48 h
NCI-H460 lung = tested on: NCI-H460 lung
U251 CNS = tested on: U251 CNS
UACC-257 melanoma = tested on: UACC-257 melanoma
MOLT-4 leukemia = tested on: MOLT-4 leukemia
LXFL 529 NSCLC = tested on: LXFL 529 NSCLC
DMS 273 small cell lung = tested on: DMS 273 small cell lung
K-562 leukemia = tested on: K-562 leukemia
NCI-H23 lung = tested on: NCI-H23 lung
HCT-15 colon = tested on: HCT-15 colon
LOX IMVI melanoma = tested on: LOX IMVI melanoma
NCI-H522 lung = tested on: NCI-H522 lung
OVCAR-5 ovarian = tested on: OVCAR-5 ovarian
UACC-62 melanoma = tested on: UACC-62 melanoma
SN12C renal = tested on: SN12C renal
SF-539 CNS = tested on: SF-539 CNS
ACHN renal = tested on: ACHN renal
HL-60(TB) leukemia = tested on: HL-60(TB) leukemia
HCT-116 colon = tested on: HCT-116 colon
IGROV1 ovarian = tested on: IGROV1 ovarian
RXF-631 renal = tested on: RXF-631 renal
HT29 colon = tested on: HT29 colon
CAKI-1 renal = tested on: CAKI-1 renal
KM20L2 colon = tested on: KM20L2 colon
OVCAR-4 ovarian = tested on: OVCAR-4 ovarian
EKVX NSCLC = tested on: EKVX NSCLC
RXF 393 renal = tested on: RXF 393 renal
SK-MEL-28 melanoma = tested on: SK-MEL-28 melanoma
SF-295 CNS = tested on: SF-295 CNS
RPMI-8226 leukemia = tested on: RPMI-8226 leukemia
SF-268 CNS = tested on: SF-268 CNS
NCI-H226 lung = tested on: NCI-H226 lung
HCC-2998 colon = tested on: HCC-2998 colon
XF 498 CNS = tested on: XF 498 CNS
SK-OV-3 ovarian = tested on: SK-OV-3 ovarian
MALME-3M melanoma = tested on: MALME-3M melanoma
OVCAR-3 ovarian = tested on: OVCAR-3 ovarian
HOP-92 NSCLC = tested on: HOP-92 NSCLC
M14 melanoma = tested on: M14 melanoma
M19-MEL melanoma = tested on: M19-MEL melanoma
KM12 colon = tested on: KM12 colon
SNB-19 CNS = tested on: SNB-19 CNS
SW-620 colon = tested on: SW-620 colon
SK-MEL-5 melanoma = tested on: SK-MEL-5 melanoma
TK-10 renal = tested on: TK-10 renal
786-0 renal = tested on: 786-0 renal
HOP-18 NSCLC = tested on: HOP-18 NSCLC
A498 renal = tested on: A498 renal
DLD-1 colon = tested on: DLD-1 colon
COLO 205 colon = tested on: COLO 205 colon
A549 NSCLC = tested on: A549 NSCLC
SNB-75 CNS = tested on: SNB-75 CNS
OVCAR-8 ovarian = tested on: OVCAR-8 ovarian
UO-31 renal = tested on: UO-31 renal
SR leukemia = tested on: SR leukemia
SK-MEL-2 melanoma = tested on: SK-MEL-2 melanoma
CCRF-CEM leukemia = tested on: CCRF-CEM leukemia
HOP-62 NSCLC = tested on: HOP-62 NSCLC
DMS 114 small cell lung = tested on: DMS 114 small cell lung

In the case of `CN1CCC(SC2Cc3cc(Cl)ccc3Sc3ccccc32)CC1` (stereo not given), the TGI (NCI-H460 lung) is reported as 31.4 µM, the TGI (U251 CNS) is reported as 27.9 µM and the TGI (UACC-257 melanoma) is reported as 21.3 µM. For the same compound, the TGI (MOLT-4 leukemia) was 20.3 µM, the TGI (LXFL 529 NSCLC) was 26.3 µM and the TGI (DMS 273 small cell lung) was 26.2 µM. It also gave a TGI (K-562 leukemia) of 21.9 µM, a TGI (NCI-H23 lung) of 27.9 µM and a TGI (HCT-15 colon) of 31.1 µM. It also gave a TGI (LOX IMVI melanoma) of 25.7 µM, a TGI (NCI-H522 lung) of 28.4 µM and a TGI (OVCAR-5 ovarian) of 30.3 µM. It also gave a TGI (UACC-62 melanoma) of 11.4 µM, a TGI (SN12C renal) of 28.5 µM and a TGI (SF-539 CNS) of 33.8 µM. It also gave a TGI (ACHN renal) of 28.6 µM, a TGI (HL-60(TB) leukemia) of 19.5 µM and a TGI (HCT-116 colon) of 22.5 µM. It also gave a TGI (IGROV1 ovarian) of 29.6 µM, a TGI (RXF-631 renal) of 27.9 µM and a TGI (HT29 colon) of 15.3 µM. It also gave a TGI (CAKI-1 renal) of 23.7 µM, a TGI (KM20L2 colon) of 17.8 µM and a TGI (OVCAR-4 ovarian) of 29 µM. The TGI (EKVX NSCLC) was 34 µM, the TGI (RXF 393 renal) was 17.1 µM and the TGI (SK-MEL-28 melanoma) was 4.78 µM. For the same compound, the TGI (SF-295 CNS) was 30.7 µM, the TGI (RPMI-8226 leukemia) was 23.3 µM and the TGI (SF-268 CNS) was 25.5 µM. For the same compound, the TGI (NCI-H226 lung) was 30 µM, the TGI (HCC-2998 colon) was 21.3 µM and the TGI (XF 498 CNS) was 30 µM. The TGI (SK-OV-3 ovarian) was 30.4 µM, the TGI (MALME-3M melanoma) was 28.8 µM and the TGI (OVCAR-3 ovarian) was 28.2 µM. The TGI (HOP-92 NSCLC) was 26.9 µM, the TGI (M14 melanoma) was 15.7 µM and the TGI (M19-MEL melanoma) was 25.3 µM. For the same compound, the TGI (KM12 colon) was 23.2 µM, the TGI (SNB-19 CNS) was 29 µM and the TGI (SW-620 colon) was 30.9 µM. For the same compound, the TGI (SK-MEL-5 melanoma) was 26.8 µM, the TGI (TK-10 renal) was 26.5 µM and the TGI (786-0 renal) was 27.7 µM. It also gave a TGI (HOP-18 NSCLC) of 26.7 µM, a TGI (A498 renal) of 31.6 µM and a TGI (DLD-1 colon) of 28.2 µM. The TGI (COLO 205 colon) was 27.2 µM, the TGI (A549 NSCLC) was 29.7 µM and the TGI (SNB-75 CNS) was 22.2 µM. It also gave a TGI (OVCAR-8 ovarian) of 31.5 µM, a TGI (UO-31 renal) of 16.7 µM and a TGI (SR leukemia) of 23.1 µM.

With `Cc1ccc(S(=O)(=O)n2cc(/C=C/C#N)c(/C=C/C#N)c2)cc1` the TGI (NCI-H460 lung) was > 100 µM, the TGI (U251 CNS) was > 100 µM and the TGI (UACC-257 melanoma) was > 100 µM. The TGI (MOLT-4 leukemia) was > 100 µM, the TGI (LXFL 529 NSCLC) was > 100 µM and the TGI (DMS 273 small cell lung) was > 100 µM. The TGI (K-562 leukemia) was > 100 µM, the TGI (NCI-H23 lung) was > 100 µM and the TGI (HCT-15 colon) was > 100 µM. The TGI (LOX IMVI melanoma) was > 100 µM, the TGI (OVCAR-5 ovarian) was > 100 µM and the TGI (UACC-62 melanoma) was > 100 µM. The TGI (SN12C renal) was > 100 µM, the TGI (SK-MEL-2 melanoma) was > 100 µM and the TGI (SF-539 CNS) was > 100 µM. For the same compound, the TGI (ACHN renal) was > 100 µM, the TGI (HL-60(TB) leukemia) was > 100 µM and the TGI (CCRF-CEM leukemia) was > 100 µM. The TGI (IGROV1 ovarian) was > 100 µM, the TGI (RXF-631 renal) was > 100 µM and the TGI (HT29 colon) was > 100 µM. For the same compound, the TGI (KM20L2 colon) was > 100 µM, the TGI (HOP-62 NSCLC) was > 100 µM and the TGI (OVCAR-4 ovarian) was > 100 µM. For the same compound, the TGI (EKVX NSCLC) was > 100 µM, the TGI (RXF 393 renal) was > 100 µM and the TGI (SK-MEL-28 melanoma) was > 100 µM. For the same compound, the TGI (SF-295 CNS) was > 100 µM, the TGI (RPMI-8226 leukemia) was > 100 µM and the TGI (SF-268 CNS) was > 100 µM. The TGI (XF 498 CNS) was > 100 µM, the TGI (SK-OV-3 ovarian) was > 100 µM and the TGI (MALME-3M melanoma) was > 100 µM. The TGI (OVCAR-3 ovarian) was > 100 µM, the TGI (HOP-92 NSCLC) was 86.7 µM and the TGI (DMS 114 small cell lung) was > 100 µM. For the same compound, the TGI (M14 melanoma) was > 100 µM, the TGI (M19-MEL melanoma) was > 100 µM and the TGI (KM12 colon) was > 100 µM. For the same compound, the TGI (SNB-19 CNS) was > 100 µM, the TGI (SW-620 colon) was > 100 µM and the TGI (SK-MEL-5 melanoma) was > 100 µM. For the same compound, the TGI (TK-10 renal) was > 100 µM, the TGI (786-0 renal) was > 100 µM and the TGI (HOP-18 NSCLC) was > 100 µM. The TGI (A498 renal) was > 100 µM, the TGI (COLO 205 colon) was > 100 µM and the TGI (A549 NSCLC) was > 100 µM. The TGI (SNB-75 CNS) was > 100 µM, the TGI (OVCAR-8 ovarian) was > 100 µM and the TGI (UO-31 renal) was > 100 µM.
